This is an account of results in PMC3548936 (ACS chemical biology, 2012).

The subject of data set [1] is VSV-G pseudotyped HIV particles (WT). Description: microbe, parasite or virus in culture. It is filed as cell-based, HIV-1. As to conditions: Human immunodeficiency virus 1, HOS, read-out: Antiviral IC50 ± SD (EC50), WT.
The nature of a further data set: in vitro. The conditions noted are these: human.
In data set [2] the test system is VSV-G pseudotyped HIV particles (IN Y143R). It is filed as cell-based, HIV-1. The conditions noted are these: read-out: Antiviral IC50 ± SD (EC50), Y143R.

Structures are written as SMILES. Some results are limits rather than exact numbers.

By EC50 is commonly meant the concentration that produces a half-maximal response. Regarding `Cc1nnc(C(=O)NC(C)(C)c2nc(C(=O)NCc3ccc(F)cc3)c(O)c(=O)n2C)o1` [RAL, raltegravir], the EC50 in data set [1] stood at 4 ± 2 nM; in data set [2], 210 ± 10 nM. Also, the CC50 in “in vitro” was above 100000 nM.
